Experimental data as given in patent US11390621B2, “Chiral indole compounds and their use” (ARIAGEN, INC., priority 2019, dated 2022).

Experiments:
CYP3A4 = target: T1, CYP3A4 (Homo sapiens, UniProt P08684); assay: CYP profiling: human liver microsomes with CYP3A4 inhibitor ketoconazole; type: in vitro ADME; parameters: % Compound Metabolized at 30 min, CYP3A4 Inhibitor: concentration or dose not given beside the values; conditions: HLMs; for % Inhibition Relative to Negative Control, 3A4: 30 min
T1 construct: from tissue; host or cells: human liver microsomes
T1 sequence (P08684 whole entry): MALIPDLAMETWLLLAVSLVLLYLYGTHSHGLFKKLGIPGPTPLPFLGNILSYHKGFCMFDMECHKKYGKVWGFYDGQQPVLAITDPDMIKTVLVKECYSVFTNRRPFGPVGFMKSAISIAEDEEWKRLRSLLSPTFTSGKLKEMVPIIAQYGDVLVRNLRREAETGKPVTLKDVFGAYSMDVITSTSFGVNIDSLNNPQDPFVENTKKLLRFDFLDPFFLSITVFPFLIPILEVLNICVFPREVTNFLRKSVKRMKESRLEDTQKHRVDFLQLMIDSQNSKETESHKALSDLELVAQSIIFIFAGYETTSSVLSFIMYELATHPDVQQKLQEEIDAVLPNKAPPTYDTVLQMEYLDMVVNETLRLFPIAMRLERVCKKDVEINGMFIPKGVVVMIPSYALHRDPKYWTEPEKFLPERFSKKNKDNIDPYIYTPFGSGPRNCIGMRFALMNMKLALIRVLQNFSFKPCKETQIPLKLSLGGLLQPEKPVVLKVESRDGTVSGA
Experimental: (§1) In order to investigate the contributions of CYP1A2 and CYP3A4 to the metabolism of the compounds of the present disclosure, human liver microsomes were incubated with the test compounds for 30 minutes in the presence of selective chemical inhibitors furafylline (1A2) and ketoconazole (3A4).

AhR = target: T2, AhR (Homo sapiens, UniProt P35869); assay: EROD assay (7-ethoxy-resorufin-O-deethylase; CYP1A1 activity) in human HepG2 cells; type: cell-based; conditions: for EC90: HepG2, human HepG2 cells; for EC50: human HepG2 cells
T2 construct: host or cells: human HepG2 cells
T2 sequence (P35869 11-848): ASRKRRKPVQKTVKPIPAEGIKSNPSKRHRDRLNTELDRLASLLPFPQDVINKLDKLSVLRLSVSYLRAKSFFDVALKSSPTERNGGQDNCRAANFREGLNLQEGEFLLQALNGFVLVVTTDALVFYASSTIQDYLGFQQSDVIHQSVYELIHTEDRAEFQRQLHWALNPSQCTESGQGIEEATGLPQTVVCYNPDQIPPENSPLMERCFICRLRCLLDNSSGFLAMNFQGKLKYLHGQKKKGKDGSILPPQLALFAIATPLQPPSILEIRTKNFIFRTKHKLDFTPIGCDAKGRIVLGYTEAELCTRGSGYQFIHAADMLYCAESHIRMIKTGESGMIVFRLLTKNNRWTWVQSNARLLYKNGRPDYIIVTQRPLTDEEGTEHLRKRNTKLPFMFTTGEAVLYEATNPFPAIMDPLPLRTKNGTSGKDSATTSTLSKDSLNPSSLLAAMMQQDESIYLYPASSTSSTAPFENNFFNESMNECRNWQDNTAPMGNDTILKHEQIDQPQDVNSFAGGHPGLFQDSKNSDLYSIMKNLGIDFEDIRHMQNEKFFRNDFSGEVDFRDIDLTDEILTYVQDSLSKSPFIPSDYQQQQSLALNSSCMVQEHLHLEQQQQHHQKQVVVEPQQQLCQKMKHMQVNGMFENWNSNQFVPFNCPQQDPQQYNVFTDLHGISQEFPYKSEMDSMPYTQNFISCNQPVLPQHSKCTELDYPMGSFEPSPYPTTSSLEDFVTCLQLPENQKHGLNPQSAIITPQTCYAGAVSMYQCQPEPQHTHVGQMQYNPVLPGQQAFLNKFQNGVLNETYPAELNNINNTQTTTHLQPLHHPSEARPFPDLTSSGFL
Experimental: CYP1A1 induction is under the control of the AhR signaling pathway. This Example describes an in vitro assay (7-ethoxy-resorufin-O-deethylase (EROD) assay) that evaluated the AhR modulating activities of the indole compounds described herein. In this assay, the indole compounds were incubated with human HepG2 cells or mouse Hepa1-6 cells. The activity of CYP1A1 in the cells was measured by the conversion of substrate 7-ethoxyresorufin, with the readout being a fluorescence signal associated with the conversion product. The EC50 values of the indole compounds as well as the maximum luminescence induced by them in the assay were determined.
Human HepG2 cells were obtained from Sigma Aldrich (Catalog 85011430-1VL).
Human HepG2 cells were grown to 60-80% confluency in tissue culture flasks, lifted with non-enzymatic cell dissociation solution (cell stripper), seeded in a 384-well plate at 5,000 cells per well, treated with the test compounds, and incubated for 20 hours overnight at 37° C. The treatment medium was removed and a solution of substrate 7-ethoxyresorufin (ETX) was added to initiate the reaction. The plate was incubated at 37° C. for 30 minutes. The reaction was subsequently terminated by adding tempered methanol. Fluorescent emission was measured at 590 nm with excitation at 530 nm in a FLEXSTATION III instrument (Molecular Devices).

CYP1A2 = target: T3, CYP1A2 (Homo sapiens, UniProt P05177); assay: CYP profiling: human liver microsomes with CYP1A2 inhibitor furafylline; type: in vitro ADME; parameters: % Compound Metabolized at 30 min, CYP1A2 Inhibitor: concentration or dose not given beside the values; conditions: HLMs; for % Inhibition Relative to Negative Control, 1A2: 30 min
T3 construct: from tissue; host or cells: human liver microsomes
T3 sequence (P05177 1-516): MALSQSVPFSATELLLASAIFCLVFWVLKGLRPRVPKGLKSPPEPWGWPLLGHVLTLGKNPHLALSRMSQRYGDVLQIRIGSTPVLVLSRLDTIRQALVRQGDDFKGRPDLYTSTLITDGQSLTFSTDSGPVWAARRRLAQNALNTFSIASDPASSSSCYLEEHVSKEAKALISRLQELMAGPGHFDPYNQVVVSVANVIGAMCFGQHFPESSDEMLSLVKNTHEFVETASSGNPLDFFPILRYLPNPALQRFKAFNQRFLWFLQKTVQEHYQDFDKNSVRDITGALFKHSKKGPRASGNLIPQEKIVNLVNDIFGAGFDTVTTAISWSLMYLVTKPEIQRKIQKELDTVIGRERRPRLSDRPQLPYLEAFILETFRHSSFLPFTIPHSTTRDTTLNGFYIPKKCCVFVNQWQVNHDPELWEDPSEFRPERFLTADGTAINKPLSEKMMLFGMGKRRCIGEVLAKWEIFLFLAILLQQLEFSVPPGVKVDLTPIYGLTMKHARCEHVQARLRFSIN
Experimental: as §1

[1] = CYP profiling: turnover in human liver microsomes, 30 min, no inhibitor; type: in vitro ADME; parameters: % Compound Metabolized at 30 min, No Inhibitor: concentration or dose not given beside the values; conditions: HLMs
Experimental: as §1

O=C(c1nc([C@H](O)C(F)(F)F)cs1)c1c[nH]c2cc(F)ccc12 [ARI-212]
% Compound Metabolized at 30 min, CYP3A4 Inhibitor (CYP3A4): 24% | % Inhibition Relative to Negative Control, 3A4 (CYP3A4): 44% | EC90 (AhR; Plate 1): 150 nM | EC50 (AhR; Plate 1): 21.9 nM | % Compound Metabolized at 30 min, CYP1A2 Inhibitor (CYP1A2): 51% | % Inhibition Relative to Negative Control, 1A2 (CYP1A2): None | % Compound Metabolized at 30 min, No Inhibitor [1]: 43%

CC(C)(O)c1csc(C(=O)c2c[nH]c3cc(F)ccc23)n1 [ARI-220, (6-fluoro-1H-indol-3-yl)(4-(2-hydroxypropan-2-yl)thiazol-2-yl)methanone]
% Compound Metabolized at 30 min, CYP3A4 Inhibitor (CYP3A4): 27% | % Inhibition Relative to Negative Control, 3A4 (CYP3A4): 34% | EC90 (AhR; Plate 2): 476 nM | EC50 (AhR; Plate 2): 372 nM | % Compound Metabolized at 30 min, CYP1A2 Inhibitor (CYP1A2): 0% | % Inhibition Relative to Negative Control, 1A2 (CYP1A2): 100% | % Compound Metabolized at 30 min, No Inhibitor [1]: 41%
